Data taken from PubChem BioAssay AID2060353 (Molecular Pharmacology Branch, DTP, NCI, 2025).
“And” between values parts separate entries of the source, which are not always exact repeats. Equal entries are not always repeated.

Test system: 521955-158-R2-J5-PDC spheroids with stroma, growth inhibition
Test: Anticancer human tumor 521955-158-R2-J5-PDC patient-derived pancreatic carcinoma cell line growth inhibition [TAK]
Conditions: for viability, T/C: stronger effect = lower value
Source text: Combinatorial screen of targeted agents with TAK-243 and ipatasertib in multi-cell type tumor spheroids
A high-throughput screen of multi-cell type tumor spheroids was designed to identify active combinations of targeted small molecules and TAK-243 or ipatasertib. Complex spheroids include a stromal component modeled by human endothelial cells (HUVEC) and fibroblasts modeled by human mesenchymal stem cells (MSCs). The concentration ranges selected for each drug and investigational agent were based upon clinically achievable concentrations if the clinical Cmax of the agent was known.
Compounds. The drugs and investigational agents: TAK-243 (785004), ipatasertib (767898), everolimus (733504), selumetinib (741078), bortezomib (756655), trametinib (758246), ixazomib (758254), vemurafenib (761431), dabrafenib (764134), sapanisertib (764658), alpelisib (765974), and copanlisib (816437), were obtained from the National Cancer Institute (NCI) Developmental Therapeutics Program Chemical Repository. The FDA-approved anticancer drug set is available from the NCI Developmental Therapeutics Program. […] The stock solutions were prepared in dimethyl sulfoxide (DMSO, Sigma-Aldrich, St. Louis, MO, cat. D2650) at 800-fold the tested concentration and stored at -70 degrees C prior to their use. All drugs and investigational agents were tested over a range starting from a high concentration at or near the clinical Cmax and decreasing in half-log increments. If the clinical Cmax for an agent had not been determined, the highest concentration tested was 10 microM.
NCI60 Cell Culture. NCI60 cell lines were obtained from the NCI Developmental Therapeutics Program Tumor Repository. For each lot of cells, the Repository performed Applied Biosystems AmpFLSTR Identifiler testing with PCR amplification to confirm consistency with the published Identifier STR profile for each cell line. Cells were kept in continuous culture for no more than 20 passages. The optimal seeding densities for each of the cell lines at each time point assessed were determined prior to performing the concentration response studies. Briefly, the NCI60 human tumor lines were grown as monolayers in RPMI 1640 medium supplemented with 10% FBS and 2 mmol/L L-glutamine.
An additional 2 lines were from the NCI60 cell line panel including melanomas, MALME-3M and SK-MEL-2. Pooled donor human umbilical vein endothelial cells (HUVEC, Lonza, cat. CC-2519) and human mesenchymal stem cells (hMSC, Lonza, cat. PT-2501) were purchased from Lonza (Walkersville, MD).
PDMR cell lines were grown in complete medium (DC medium): Dulbecco's modified Eagle's medium (DMEM)/F12 supplemented with 5% fetal bovine serum (FBS), 2 mM L-glutamine, 100 U/mL penicillin and 100 µg/ml streptomycin, 0.4 µg/ml hydrocortisone, 10 ng/ml epidermal growth factor (EGF) recombinant human protein, 24 µg/mL adenine, and 0.1 mg/mL primocin. During culture from frozen stock vials, PDMR cells were cultured in the same medium containing 10 µM Y-27632 (see Table 3). The PDCs were cultured in complete DMEM/F12 media without 10 microM Y-27632 dihydrochloride for at least two passages prior to the screen. The pooled donor HUVEC and hMSC were cultured in endothelial cell growth medium 2 (PromoCell, Heidelberg, Germany, cat. C-22011) and mesenchymal stem cell growth medium 2 (PromoCell, cat. C-28009), respectively. For all experiments, HUVEC and hMSC were used at passages </=5.
For the pre-screen, cell seeding densities were determined from a titration spanning the range from 5,000 to 313 cells per well. The mct-spheroids including 60% malignant cells, 25% HUVEC and 15% MSC dispensed as a mixture into U-bottom Ultra-Low Attachment 384-well plates (Corning, NY)
High-throughput Drug Combination Screening.
Prior to their inoculation into 384-well plates, malignant cells, HUVEC, and hMSC were removed from T flasks using TrypLE express (Thermo Fisher Scientific, cat. 12605036) and harvested by centrifugation for 5 min at 233 x g. […]

[1] = curve of first compound, second compound 0.3 µM
[2] = curve of first compound, second compound 0.949 µM
[3] = curve of first compound, second compound 3 µM
[4] = curve of first compound, second compound 9.49 µM
[5] = curve of first compound, second compound 30 µM
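Further: spheroids exposed to drugs for seven days before readout.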
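Wherever viability, T/C is given: 100% = DMSO vehicle control viability.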

Structure (SMILES): CC(C)CC(NC(=O)C(Cc1ccccc1)NC(=O)c1cnccn1)B(O)O (stereo not given)
- viability, T/C (compound 31.6 pM): 94.9% and 116%
- viability, T/C (compound 0.0001 µM): 90.7% and 91.3%
- viability, T/C (compound 0.000316 µM): 91.3% and 92.2%
- viability, T/C (compound 0.001 µM): 95.1% and 117%
- viability, T/C (compound 0.00316 µM): 105% and 99.9%
- viability, T/C (compound 0.01 µM): 12.7% and 7.91%
- IC50 (curve of compound): 0.00596 µM and 0.00603 µM

Structure (SMILES): CC(C)CC(NC(=O)CNC(=O)c1cc(Cl)ccc1Cl)B1OC(=O)CC(CC(=O)O)(C(=O)O)O1 (stereo not given) + CC(C)NCC(C(=O)N1CCN(c2ncnc3c2C(C)CC3O)CC1)c1ccc(Cl)cc1
- IC50 [1]: 0.039 µM
- IC50 [2]: 0.03 µM
- IC50 [3]: 0.0268 µM
- IC50 [4]: 0.0257 µM
- IC50 [5]: 0.0152 µM
- viability, T/C (second compound 0.3 µM, first compound 0.000316 µM): 129%
- viability, T/C (second compound 0.3 µM, first compound 0.001 µM): 114%
- viability, T/C (second compound 0.3 µM, first compound 0.00316 µM): 104%
- viability, T/C (second compound 0.3 µM, first compound 0.01 µM): 116%
- viability, T/C (second compound 0.3 µM, first compound 0.0316 µM): 59%
- viability, T/C (second compound 0.3 µM, first compound 0.1 µM): 8.82%
- viability, T/C (second compound 0.949 µM, first compound 0.000316 µM): 85.2%
- viability, T/C (second compound 0.949 µM, first compound 0.001 µM): 98.6%
- viability, T/C (second compound 0.949 µM, first compound 0.00316 µM): 87.6%
- viability, T/C (second compound 0.949 µM, first compound 0.01 µM): 94.2%
- viability, T/C (second compound 0.949 µM, first compound 0.0316 µM): 48.1%
- viability, T/C (second compound 0.949 µM, first compound 0.1 µM): 6.65%
- viability, T/C (second compound 3 µM, first compound 0.000316 µM): 77.8%
- viability, T/C (second compound 3 µM, first compound 0.001 µM): 78%
- viability, T/C (second compound 3 µM, first compound 0.00316 µM): 87%
- viability, T/C (second compound 3 µM, first compound 0.01 µM): 89.6%
- viability, T/C (second compound 3 µM, first compound 0.0316 µM): 44.4%
- viability, T/C (second compound 3 µM, first compound 0.1 µM): 6.08%
- viability, T/C (second compound 9.49 µM, first compound 0.000316 µM): 123%
- viability, T/C (second compound 9.49 µM, first compound 0.001 µM): 103%
- viability, T/C (second compound 9.49 µM, first compound 0.00316 µM): 115%
- viability, T/C (second compound 9.49 µM, first compound 0.01 µM): 122%
- viability, T/C (second compound 9.49 µM, first compound 0.0316 µM): 35.7%
- viability, T/C (second compound 9.49 µM, first compound 0.1 µM): 4.11%
- viability, T/C (second compound 30 µM, first compound 0.000316 µM): 69.3%
- viability, T/C (second compound 30 µM, first compound 0.001 µM): 69.1%
- viability, T/C (second compound 30 µM, first compound 0.00316 µM): 72.4%
- viability, T/C (second compound 30 µM, first compound 0.01 µM): 66.4%
- viability, T/C (second compound 30 µM, first compound 0.0316 µM): 21.3%
- viability, T/C (second compound 30 µM, first compound 0.1 µM): 2.31%

Structure (SMILES): CC(C)NCC(C(=O)N1CCN(c2ncnc3c2C(C)CC3O)CC1)c1ccc(Cl)cc1 (stereo not given)
- viability, T/C (compound 0.3 µM): 101% [middle of 10 runs]
- viability, T/C (compound 0.949 µM): 81.5% [middle of 10 runs]
- viability, T/C (compound 3 µM): 82.7% [middle of 10 runs]
- viability, T/C (compound 30 µM): 56.5% [middle of 10 runs]
- IC50 (compound alone, run of 02/20/2020): > 30 µM

Structure (SMILES): CCCS(=O)(=O)Nc1ccc(F)c(C(=O)c2c[nH]c3ncc(-c4ccc(Cl)cc4)cc23)c1F
- viability, T/C (compound 0.316 µM): 77.5% and 89.5%
- viability, T/C (compound 1 µM): 89% and 87.9%
- viability, T/C (compound 3.16 µM): 132% and 116%
- viability, T/C (compound 10 µM): 149% and 164%
- viability, T/C (compound 31.6 µM): 165% and 24.2%
- viability, T/C (compound 100 µM): 187% and 232%
- IC50 (curve of compound): > 100 µM

Structure (SMILES): CC(C)CC(NC(=O)CNC(=O)c1cc(Cl)ccc1Cl)B1OC(=O)CC(CC(=O)O)(C(=O)O)O1 (stereo not given)
- viability, T/C (compound 0.000316 µM): 102% and 105%
- viability, T/C (compound 0.001 µM): 111% and 93.8%
- viability, T/C (compound 0.00316 µM): 96.3% and 92%
- viability, T/C (compound 0.01 µM): 93.5% and 92.7%
- viability, T/C (compound 0.0316 µM): 80.1% and 72.8%
- viability, T/C (compound 0.1 µM): 10% and 7.07%
- IC50 (curve of compound): 0.0508 µM and 0.047 µM

Structure (SMILES): CC(C)(C)c1nc(-c2cccc(NS(=O)(=O)c3c(F)cccc3F)c2F)c(-c2ccnc(N)n2)s1
- viability, T/C (compound 0.0316 µM): 102% and 112%
- viability, T/C (compound 0.1 µM): 112% and 117%
- viability, T/C (compound 0.316 µM): 140% and 170%
- viability, T/C (compound 1 µM): 160% and 186%
- viability, T/C (compound 3.16 µM): 114% and 125%
- viability, T/C (compound 10 µM): 88.9% and 92.2%
- IC50 (curve of compound): > 10 µM

Structure (SMILES): COc1c(OCCCN2CCOCC2)ccc2c3n(c(=NC(=O)c4cnc(N)nc4)nc12)CCN3
- viability, T/C (compound 0.00316 µM): 96.6% and 79.7%
- viability, T/C (compound 0.01 µM): 71.7% and 68.7%
- viability, T/C (compound 0.0316 µM): 48.8% and 53.6%
- viability, T/C (compound 0.1 µM): 29.3%
- viability, T/C (compound 0.316 µM): 9.38% and 8.89%
- viability, T/C (compound 1 µM): 8.06% and 7.65%
- IC50 (curve of compound): 0.0288 µM and 0.0361 µM

Structure (SMILES): Cn1cnc2c(F)c(Nc3ccc(Br)cc3Cl)c(C(=O)NOCCO)cc21 + CC(C)NCC(C(=O)N1CCN(c2ncnc3c2C(C)CC3O)CC1)c1ccc(Cl)cc1
- IC50 [1]: 0.0257 µM
- IC50 [2]: < 0.00949 µM
- IC50 [3]: < 0.00949 µM
- IC50 [4]: 0.0202 µM
- IC50 [5]: < 0.00949 µM
- viability, T/C (second compound 0.3 µM, first compound 0.00949 µM): 64.4%
- viability, T/C (second compound 0.3 µM, first compound 0.03 µM): 42.6%
- viability, T/C (second compound 0.3 µM, first compound 0.0949 µM): 36.7%
- viability, T/C (second compound 0.3 µM, first compound 0.3 µM): 38.3%
- viability, T/C (second compound 0.3 µM, first compound 0.949 µM): 27.7%
- viability, T/C (second compound 0.3 µM, first compound 3 µM): 20.4%
- viability, T/C (second compound 0.949 µM, first compound 0.00949 µM): 48.9%
- viability, T/C (second compound 0.949 µM, first compound 0.03 µM): 38.9%
- viability, T/C (second compound 0.949 µM, first compound 0.0949 µM): 28.5%
- viability, T/C (second compound 0.949 µM, first compound 0.3 µM): 20.9%
- viability, T/C (second compound 0.949 µM, first compound 0.949 µM): 15.8%
- viability, T/C (second compound 0.949 µM, first compound 3 µM): 5.06%
- viability, T/C (second compound 3 µM, first compound 0.00949 µM): 44.8%
- viability, T/C (second compound 3 µM, first compound 0.03 µM): 38.5%
- viability, T/C (second compound 3 µM, first compound 0.0949 µM): 28.6%
- viability, T/C (second compound 3 µM, first compound 0.3 µM): 25%
- viability, T/C (second compound 3 µM, first compound 0.949 µM): 14.1%
- viability, T/C (second compound 3 µM, first compound 3 µM): 5.64%
- viability, T/C (second compound 9.49 µM, first compound 0.00949 µM): 61%
- viability, T/C (second compound 9.49 µM, first compound 0.03 µM): 45%
- viability, T/C (second compound 9.49 µM, first compound 0.0949 µM): 29%
- viability, T/C (second compound 9.49 µM, first compound 0.3 µM): 21.3%
- viability, T/C (second compound 9.49 µM, first compound 0.949 µM): 13.5%
- viability, T/C (second compound 9.49 µM, first compound 3 µM): 5.67%
- viability, T/C (second compound 30 µM, first compound 0.00949 µM): 40.2%
- viability, T/C (second compound 30 µM, first compound 0.03 µM): 21.9%
- viability, T/C (second compound 30 µM, first compound 0.0949 µM): 17.9%
- viability, T/C (second compound 30 µM, first compound 0.3 µM): 10%
- viability, T/C (second compound 30 µM, first compound 0.949 µM): 3.77%
- viability, T/C (second compound 30 µM, first compound 3 µM): 1.5%
